Read-outs that look alike come from different tables or passages of the source. Non-standard residues stand in square brackets, D forms with d. Residues, ends and D or L forms follow the SMILES beside them. *: point of attachment. Phenylacetyl(2,3,4,5,6-F5) = O=C(Cc1c(F)c(F)c(F)c(F)c1F)*; Phe(F5) = N[C@@H](Cc1c(F)c(F)c(F)c(F)c1F)C(=O)O; hArg = N=C(N)NCCCC[C@H](N)C(=O)O; 12Ado = NCCCCCCCCCCCC(=O)O; Nle = CCCC[C@H](N)C(=O)O; Orn = NCCC[C@H](N)C(=O)O; Abu = CC[C@H](N)C(=O)O; PhAc = O=C(Cc1ccccc1)*
Legend:
CFPAC-1 cells = assay: In vitro cell viability, pancreatic cancer CFPAC-1; format: cell-based, human; conditions: 5 μM, 72 h; for Relative inhibitory potency, Pancreatic CFPAC-1: relative to MIA602 = 1, Table 3A
Method in brief: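 Cells grown to ~60% confluence and serum-starved 24 h in 0.5% FBS, then exposed to antagonists at 5 μM (some at 2 μM) for 72 h in quintuplicate, with medium replaced every 48 h. Viability read by CellTiter 96 AQueous One (MTS). Values are inhibition relative to MIA602.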

[1] = molecular target: T1, membrane GHRH-receptors on human anterior pituitary cells (Homo sapiens, UniProt Q02643); assay: Competitive receptor binding, displacement of 125I-[His1,Nle27]-hGH-RH(1-32)NH2 from human pituitary membranes
T1 construct: Human pituitary was purchased from the National Hormone and Peptide Program; tissue National Hormone and Peptide Program; host or cells: human pituitary membrane fractions
T1 sequence (Q02643 23-423): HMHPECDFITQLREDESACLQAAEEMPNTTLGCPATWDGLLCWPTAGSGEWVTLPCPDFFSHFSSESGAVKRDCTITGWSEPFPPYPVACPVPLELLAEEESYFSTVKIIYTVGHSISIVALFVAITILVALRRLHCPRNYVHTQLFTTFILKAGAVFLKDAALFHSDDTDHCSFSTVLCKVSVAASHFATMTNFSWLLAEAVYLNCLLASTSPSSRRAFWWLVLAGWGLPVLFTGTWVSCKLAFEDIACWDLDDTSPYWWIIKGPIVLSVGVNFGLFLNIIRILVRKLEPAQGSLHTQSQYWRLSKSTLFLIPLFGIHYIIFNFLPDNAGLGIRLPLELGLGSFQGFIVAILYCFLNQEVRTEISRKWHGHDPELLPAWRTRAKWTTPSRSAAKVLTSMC
Protocol: Receptor binding affinities in vitro. Preparation of human pituitary membrane fractions and receptor binding of analogs of GH-RH were performed (Halmos G, Rekasi Z, Szoke B, Schally A V. (1993) Receptor 3:87-97). Human pituitary was purchased from the National Hormone and Peptide Program. […] Relative affinities compared to hGH-RH(1-29)NH2 were calculated as the ratio of IC50 (dose causing 50% inhibition of specific binding to receptors) of the tested peptides to the IC50 of hGH-RH(1-29)NH2. The values were calculated from technical duplicate tubes.
Nineteen new AVR analogs of GHRH were tested in the receptor binding assay. Table 6 presents the IC50 values of GHRH antagonists to membrane GHRH-receptors binding on human anterior pituitary cells.

NCI-N87 cells = assay: In vitro cell viability (CellTiter 96), stomach cancer N87; format: cell-based, human; conditions: 5 μM, 72 h; for Relative inhibitory potency, Stomach N87: relative to MIA602 = 1, Table 3A
Protocol: (§1) The inhibitory effects of the various synthesized GHRH antagonists were tested in cell proliferation assays in various human cancer cell lines including stomach cancer (KATOIII, N87), colon cancer (HT-29), urothelial cancer (J82, RT4), pancreatic cancer (PANC-1, CFPAC-1), prostatic cancer (PC3), breast cancer (MX-1, HCC1806), ovarian cancer (SK-OV-3, OVCAR-3) and lung cancer (HCC827, H460).
(§2) Cell culture. Human cancer cell lines including pancreatic (PANC-1 and CFPAC-1), lung (HCC827 and H460), stomach (NCI-N87 and KATOIII), urothelial (J82, RT4), prostatic (PC3), breast (MX-1 and HCC 1806), colorectal (HT-29), and ovarian (SK-OV-3 and OVCAR-3) were obtained from the American Type Culture Collection (ATCC) and cultured at 37° C. in a humidified 95% air/5% CO2 atmosphere in the medium recommended by ATCC.
(§3) In vitro cell viability. Cell viability was analyzed as follows: cancer cells including pancreatic (PANC-1 and CFPAC-1), lung (HCC827 and H460), stomach (NCI-N87 and KATOIII), urothelial (J82, RT4), prostatic (PC3) and breast (MX-1 and HCC 1806), colorectal (HT-29) and ovarian (SK-OV-3 and OVCAR-3) were grown on 96 well plates to ˜60% confluence, the cells were starved for 24 h in culture medium containing 0.5% FBS. Cells were then treated with GHRH antagonists MIA602 AVR compounds at concentrations of 1, 2.5 or 5 μM, or vehicle (0.1% DMSO) in quintuplicates for 72 hours. The medium was replaced every 48 hours. Cell viability was measured using CellTiter 96 aqueous one solution kit (Promega). Inhibitory effects of tested AVR compounds in comparison to that of MIA602 are presented as inhibitory potency.
(§4) Inhibitory effects of selected AVR compounds in comparison to that of MIA602 are presented as inhibitory potency (e.g., percentage of inhibition). […] The cell lines tested including lung cancer HCC827 (FIG. 2A), pancreatic cancer CFPAC-1 (FIG. 2B), stomach cancer N87 (FIG. 2C), colon cancer HT-29 (FIG. 2D), breast cancers MX-1 and HCC1806 (FIGS. 2E, F). Based on the results of cell proliferation assay after cancer cells were treated with antagonist at concentration of 5 μM for 72H, the relative inhibitory potency of AVR antagonists in comparison to MIA-602 is summarized in Table 3 A and B. Over 60 AVR compounds were tested in 12 cancer cell lines.
Based on the results of cell proliferation assay after cancer cells were treated with antagonist at concentration of 5 µM for 72H, * at concentration of 2 µM for 72 H.

J82 cells = assay: In vitro cell viability, urothelial cancer J82; format: cell-based, human; conditions: 5 μM, 72 h; relative to MIA602 = 1; Table 3A
Protocol: as §1, §2, §3, §4

KATOIII cells = assay: In vitro cell viability, stomach cancer KATOIII; format: cell-based, human; conditions: 5 μM, 72 h; relative to MIA602 = 1; Table 3A
Method in brief: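 Cells grown to ~60% confluence, starved 24 h in 0.5% FBS medium, then exposed to antagonists at 1, 2.5 or 5 μM or 0.1% DMSO vehicle for 72 h, in quintuplicate with medium renewed every 48 h. Viability by CellTiter 96 AQueous One; reported as inhibitory potency relative to MIA602.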

In the case of `CCCC[C@H](NC(=O)[C@@H](NC(=O)[C@H](CC(=O)O)NC(=O)[C@H](CCC(N)=O)NC(=O)[C@H](CC(C)C)NC(=O)[C@H](CC(C)C)NC(=O)[C@H](CCCCN)NC(=O)[C@H](CCCNC(=N)N)NC(=O)[C@H](C)NC(=O)[C@H](CO)NC(=O)[C@H](CC(C)C)NC(=O)[C@H](CCC(N)=O)NC(=O)[C@H](CC)NC(=O)[C@H](CC(C)C)NC(=O)[C@@H](NC(=O)[C@H](CCCCN)NC(=O)[C@H](CCCNC(=N)N)NC(=O)[C@H](Cc1ccc(OC)cc1)NC(=O)[C@H](CCCCNC(=N)N)NC(=O)[C@H](C)NC(=O)[C@@H](NC(=O)[C@H](Cc1c(F)c(F)c(F)c(F)c1F)NC(=O)[C@@H](NC(=O)[C@H](C)NC(=O)[C@H](CC(=O)O)NC(=O)[C@@H](CCCNC(=N)N)NC(=O)[C@H](Cc1ccc(O)cc1)NC(=O)CCCCCCCCCCCNC(=O)Cc1c(F)c(F)c(F)c(F)c1F)[C@@H](C)CC)[C@@H](C)O)C(C)C)[C@@H](C)CC)C(=O)N[C@H](CCCNC(=N)N)C(=O)N[C@@H](CCCCNC(=N)N)C(=O)NC` [AVR-235] ({Phenylacetyl(2,3,4,5,6-F5)-12Ado}-Y[dR]DAI[Phe(F5)]TA[hArg]Y(Me)RKVL[Abu]QLSARKLLQDI[Nle][dR][hArg]-NHMe), the “Relative inhibitory potency, Pancreatic CFPAC-1” value (CFPAC-1 cells) is reported as 1.399, the IC50 ([1]; human anterior pituitary membranes, mean of two to three determinations, read-out: IC50) is reported as 0.49 nM and the “Relative inhibitory potency, Stomach N87” value (NCI-N87 cells) is reported as 2.911. For the same compound, the “Relative inhibitory potency, Urothelial J82” value (J82 cells) was 1.518 and the “Relative inhibitory potency, Stomach KATOIII” value (KATOIII cells) was 1.220.
`CCCC[C@H](NC(=O)[C@@H](NC(=O)[C@H](CC(=O)O)NC(=O)[C@H](CCC(N)=O)NC(=O)[C@H](CC(C)C)NC(=O)[C@H](CC(C)C)NC(=O)[C@H](CCCN)NC(=O)[C@H](Cc1c[nH]cn1)NC(=O)[C@H](C)NC(=O)[C@H](CO)NC(=O)[C@H](CC(C)C)NC(=O)[C@H](CCC(N)=O)NC(=O)[C@H](CC)NC(=O)[C@H](CC(C)C)NC(=O)[C@@H](NC(=O)[C@H](CCCN)NC(=O)[C@H](Cc1c[nH]cn1)NC(=O)[C@H](Cc1ccc(OC)cc1)NC(=O)[C@H](CCCCNC(=N)N)NC(=O)[C@H](C)NC(=O)[C@@H](NC(=O)[C@H](Cc1c(F)c(F)c(F)c(F)c1F)NC(=O)[C@@H](NC(=O)[C@H](C)NC(=O)[C@H](CC(=O)O)NC(=O)[C@@H](CCCNC(=N)N)NC(=O)[C@H](Cc1ccc(O)cc1)NC(=O)CCCCCCCCCCCNC(=O)Cc1ccccc1)[C@@H](C)CC)[C@@H](C)O)C(C)C)[C@@H](C)CC)C(=O)N[C@H](CCCNC(=N)N)C(=O)N[C@@H](CCCCNC(=N)N)C(N)=O` [MIA-602, PhAC-Ada, Tyr D-Arg, Asp, Ala, Ile, 5FPhe, Thr, Ala, Har, Tyr(Me), His, Orn, Val, Leu, Abu, Gin, Leu, Ser, Ala, His, Orn, Leu, Leu, Gin, Asp, Ile, Nle, D-Arg, Har NH2, reference compound] ({PhAc-12Ado}-Y[dR]DAI[Phe(F5)]TA[hArg]Y(Me)H[Orn]VL[Abu]QLSAH[Orn]LLQDI[Nle][dR][hArg]-NH2) was tested, and the “In vitro relative inhibitory potency in comparison to MIA-602, CFPAC-1” value (CFPAC-1 cells; Table 3B) was 1, the “Relative inhibitory potency, Pancreatic CFPAC-1” value (CFPAC-1 cells) was 1 and the IC50 [1] was 0.27 nM. For the same compound, the “In vitro relative inhibitory potency in comparison to MIA-602, NCI-N87” value (NCI-N87 cells; Table 3B) was 1, the “Relative inhibitory potency, Stomach N87” value (NCI-N87 cells) was 1 and the “Relative inhibitory potency, Urothelial J82” value (J82 cells) was 1. The “Relative inhibitory potency, Stomach KATOIII” value (KATOIII cells) was 1.
